Measurements: PMC4751939, “Antileishmanial Activity of Compounds Derived from the Medicines for Malaria Venture Open Access Box against Intracellular Leishmania major Amastigotes” (The American Journal of Tropical Medicine and Hygiene, 2016)
Read-outs that look alike come from different tables or passages of the source.

Tests used:
Format in all cases: cell-based
[1] = test system: intracellular Leishmania major amastigotes (luciferase-expressing, in RAW 264.7 macrophages); assay: Luciferase-expressing intracellular L. major amastigote-macrophage dose-response assay
Procedure: Macrophages were harvested from culture by removing all spent media, adding in 10 mL of fresh media, scraping adherent macrophages from the culture flask, and counting macrophages using trypan blue. The cells were resuspended at 2.0 × 10^5 cells/mL, and then dispensed in a volume of 50 μL to yield a final concentration of 10,000 macrophages/well in 384-well tissue culture–treated sterile white plates (Nunc/Thermo Fisher, Rochester, NY) using a Tecan EVO Freedom robotics system (Tecan U.S., Durham, NC). The plates were then incubated at 37°C in 5% CO2 atmosphere for 24 hours. After incubation, the media was removed from each well using the Tecan EVO Freedom robot, and 1 × 10^5 transfected L. major promastigotes were added to each well in a volume of 50 μL in DMEM/heat-inactivated fetal bovine serum (HIFBS) media and allowed to invade the macrophages. After overnight incubation, the media was removed from each well using the Tecan Freedom EVO robot, and each well was subsequently washed three times with 40 μL of fresh DMEM/HIFBS medium to remove all extracellular promastigotes. After the third wash, 69.2 μL of DMEM/HIFBS medium was added to each well using the Tecan EVO Freedom robot. Drug plates were prepared with the Tecan EVO Freedom using sterile 96-well plates containing 12 duplicate 2-fold serial dilutions of each test compound suspended in dimethyl sulfoxide (DMSO) for dose–response determinations. Of diluted test compound, 7.8 μL was added to the 69.2 μL media present in each well providing a 10-fold final dilution of compound. The final concentration range tested was 0.0005–1 μM for all assays. The plates were placed in a modular incubator chamber (Billups-Rothenburg, Del Mar, CA) that contained a humidity source, consisting of soaked gauze in a weigh boat, which was placed in the bottom of the chamber. Both valves on the system were opened and using a vent filter (Millipore, Billerica, MA), attached to the one valve, mixed gas containing 5% O2, 5% CO2, and a balance of nitrogen was allowed to pass through the system for 60 seconds. After 60 seconds, the exit valve was closed and the mixed gas was allowed to flow into the chamber for 10 seconds. At that point the remaining valve was closed. Chambers were gassed every other day. The chambers were incubated at 37°C for 96 hours. After 96 hours of incubation, 7.5 μL luciferin solution (Caliper Life Science, Hopkinton, MA) diluted to 150 μg/mL was added to each well, and the plates were incubated for 30 minutes at 37°C in the dark. Each plate was read using an Infinite M200 plate reader (Tecan Inc., Durham, NC).
The 50% inhibitory concentrations (IC50) were then generated for each dose–response test using GraphPad Prism (GraphPad Software Inc., San Diego, CA) using the nonlinear regression (sigmoidal dose–response/variable slope) equation.

MTT cytotoxicity assay = settings: human, HepG2 cells, 48-hour incubation
Procedure: (§1) An 3-(4,5-dimethylthiazol-2-yl)-2,5-diphenyltetrazolium bromide (MTT) cytotoxicity counter assay was used to test all compounds from the MMV Malaria Box for cytotoxicity. The 384-well MTT cytotoxicity assay is a modification of the MTT method described by Ferrari and others[29] optimized for 384-well throughput. HepG2 target cells for this assay were cultured in […]. The HepG2 target cells for this assay were cultured as follows: HepG2 cells were cultured in complete Minimal Essential Medium (MEM; catalog no. 11090-099, Gibco-Invitrogen) prepared by supplementing MEM with 0.19% sodium bicarbonate (catalog no. 25080-094, Gibco-BRL), 10% HIFBS (catalog no. 16000-036, Gibco-Invitrogen, Grand Island, NY), 2 mM L-glutamine (catalog no. 25030-081, Gibco-Invitrogen), 0.1 mM MEM nonessential amino acids (catalog no. 11140-050, Gibco-Invitrogen), 0.009 mg/mL insulin (catalog no. I1882, Sigma), 1.76 mg/mL bovine serum albumin (catalog no. A1470, Sigma), 20 units/mL penicillin–streptomycin (catalog no. 15140-148, Gibco-Invitrogen), and 0.05 mg/mL gentamycin (catalog no. 15710-064, Gibco-Invitrogen). HepG2 cells cultured in complete MEM were first washed with 1× Hank's Balanced Salt Solution (catalog no. 14175-095, Invitrogen), trypsinized using a 0.25% trypsin/ethylenediaminetetraacetic acid solution (catalog no. 25200-106, Invitrogen), assessed for viability using trypan blue, and resuspended at 250,000 cells/mL. Drug plates were prepared with the Tecan EVO Freedom using sterile 96-well plates containing 12 duplicate 1.6-fold serial dilutions of each test compound suspended in DMSO. Of diluted test compound, 4.25 μL was then added to the 38.3 μL of media in each well providing a 10-fold final dilution of compound. Compounds were tested from a range of 57 to 10,000 ng/mL for all assays. The 4-azaindolo[2,1-b]quinazoline-6,12-dione was used as a toxicity control. After a 48-hour incubation period, 8 μL of a 1.5 mg/mL solution of MTT diluted in complete MEM media was added to each well. All plates were subsequently incubated in the dark for 1 hour at room temperature. After incubation, the media and drugs in each well was removed by shaking plate over sink, the plates were then left to dry in hood for 15 minutes. Next, 30 μL of isopropanol acidified by addition of hydrochloric acid at a final concentration of 0.36% was added to dissolve the formazan dye crystals created by reduction of MTT. Plates are put on a three-dimensional rotator for 15–30 minutes. Absorbance was determined in all wells using a Tecan icontrol 1.6 Infinite plate reader. The IC50 determinations were then generated for each toxicity dose–response test using GraphPad Prism (GraphPad Software Inc., San Diego, CA) using the nonlinear regression (sigmoidal dose–response/variable slope) equation.

HepG2 cells = assay: MTT cytotoxicity assay; settings: 48-hour incubation
Procedure: as §1

[2] = Leishmania major, RAW264.7, transgenic luciferase expressing intracellular L. major amastigote-macrophage parasites, 96 hours, read-out: Geometric mean L. major IC50 ± SD (n)
[3] = Leishmania major, RAW264.7, MMV Malaria Box L. major hits, intracellular amastigotes, 96 hours, read-out: IC50
[4] = Leishmania major, RAW264.7, rounded values quoted in the discussion, read-out: L. major amastigote-macrophage IC50

| Compound | IC50 at 48 h (MTT cytotoxicity assay) [nM] | IC50 [1, 3] [nM] | also measured |
| --- | --- | --- | --- |
| CCCCCCCCCCCCCCCCOP(=O)([O-])OCC[N+](C)(C)C [Miltefosine, reference compound] | – | – | IC50 [1, 2]: 550 ± 30 nM |
| COc1ccc(CCNC(=O)c2cc(S(=O)(=O)N3CC(C)CC(C)C3)ccc2Sc2ccc(F)cc2)cc1OC (stereo not drawn) [MMV007557, N-[2-(3,4-dimethoxyphenyl)ethyl]-5-(3,5-dimethylpiperidin-1-yl)sulfonyl-2-(4-fluorophenyl)sulfanylbenzamide] | > 6060 | 180 | – |
| C[n+]1c2ccccc2nc2ccc(NCCO)cc21 [MMV396693, 2-[(10-methylphenazin-10-ium-2-yl)amino]ethanol] | 5660 | – | IC50 ([1]; Leishmania major, RAW264.7, 96 h): 53.4 nM |
| COc1ccc(CCN2CCC(CN(C)Cc3cnn(-c4ccccc4)c3)CC2)cc1 [MMV666069] | 5820 | 366 | – |
| O=[N+]([O-])c1ccc(C=NNc2nc3ccccc3[nH]2)cc1 [MMV666607, 2-{2-[(4-nitrophenyl)methylidene]hydrazin-1-yl}-1H-1,3-benzodiazole] | > 6060 | 134 | IC50 [1, 4]: 134 nM |
| CCCCCn1c(=N)n(CC(O)COc2cccc(C)c2)c2ccccc21 (stereo not drawn) [MMV000444, 1-(2-imino-3-pentylbenzimidazol-1-yl)-3-(3-methylphenoxy)propan-2-ol] | 4130 | 267 | – |
| Cc1c(C)n(Cc2ccc(F)cc2)c2ccc(C(=O)NCc3ccco3)cc12 [MMV008149, 1-[(4-fluorophenyl)methyl]-N-(furan-2-ylmethyl)-2,3-dimethylindole-5-carboxamide] | 3260 | 229 | – |
| Cc1ccc(Cn2c(N3CCC(C(=O)NCc4cccs4)CC3)nc3ccccc32)cc1 [MMV007564, 1-[1-[(4-methylphenyl)methyl]benzimidazol-2-yl]-N-(thiophen-2-ylmethyl)piperidine-4-carboxamide] | > 6060 | 60.8 | IC50 [1, 4]: 61 nM |
| CCOC(=O)c1cn(CC)c2cc(N3CCCCC3)c(F)cc2c1=O [MMV665827, ethyl 1-ethyl-6-fluoro-4-oxo-7-piperidin-1-ylquinoline-3-carboxylate] | 1720 | 478 | – |
| 2-{2-[(4-nitrophenyl)methylidene]hydrazin-1-yl}-1H-1,3-benzodiazole [MMV666023] | – | – | IC50 (HepG2 cells): 1300 nM; IC50 ([1]; MMV Malaria Box L. major hits, intracellular amastigotes, 96 hours, read-out: IC50): 91.7 nM; IC50 ([1]; rounded values quoted in the discussion, read-out: L. major amastigote-macrophage IC50): 92 nM |
| C[C@@H]1[C@H](O)[C@@H](C)/C=C/C=C/C=C/C=C/C=C/C=C/C=C/[C@H](O[C@@H]2O[C@H](C)[C@@H](O)[C@H](N)[C@@H]2O)C[C@@H]2O[C@](O)(C[C@@H](O)C[C@@H](O)[C@H](O)CC[C@@H](O)C[C@@H](O)CC(=O)O[C@H]1C)C[C@H](O)[C@H]2C(=O)O [Amphotericin B, reference compound] | – | – | IC50 [1, 2]: 27 ± 10 nM |
| c1ccc(CNc2nc(Nc3ccccc3)nc3ccccc23)cc1 [MMV006169, N-phenyl-N′-(phenylmethyl)quinazoline-2,4-diamine] | 5660 | 467 | – |
| N=C(N)c1ccc(OCCCCCOc2ccc(C(=N)N)cc2)cc1 [Pentamidine, reference compound] | – | – | IC50 [1, 2]: 3420 ± 1700 nM |
| CC(=O)N1CCN(c2ccc(OCC3COC(Cn4ccnc4)(c4ccc(Cl)cc4Cl)O3)cc2)CC1 (stereo not drawn) [Ketoconazole, reference compound] | – | – | IC50 [1, 2]: 19800 ± 3900 nM |
| O=C(O)[C@@H]1[O][Sb](=[O])([O][Sb]2(=[O])[O][C@H]([C@H](O)CO)[C@H](O)[C@H](C(=O)O)[O]2)[O][C@H]([C@H](O)CO)[C@@H]1O.[Na+].[Na+].[Na+] (stereo partly drawn) [Pentostam, reference compound] | – | – | IC50 ([1]; transgenic luciferase expressing intracellular L. major amastigote-macrophage parasites, 96 hours, read-out: Geometric mean L. major IC50 ± SD (n)): 9080 ± 350 nM |
| Cc1ccccc1OCCSc1nc2ccc(NC(=O)c3cccs3)cc2s1 [MMV007396, N-[2-[2-(2-methylphenoxy)ethylsulfanyl]-1,3-benzothiazol-6-yl]thiophene-2-carboxamide] | 3500 | 120 | – |
| CCOc1ccc(N2C(N)=NC(N)=NC2(C)C)cc1 [MMV667486, 1-(4-ethoxyphenyl)-6,6-dimethyl-1,3,5-triazine-2,4-diamine] | > 6060 | 193 | – |
| CCCCN(CCCC)S(=O)(=O)c1ccc(NC(=O)c2ccco2)cc1 [MMV007881, N-[4-(dibutylsulfamoyl)phenyl]furan-2-carboxamide] | 5600 | 418 | – |
| CCN(CC)CCCCCCNc1cc(OC)cc2c(C)ccnc12 [Sitamaquine, reference compound] | – | – | IC50 [1, 2]: 10000 ± 370 nM |
| NC[C@@H]1O[C@H](O[C@H]2[C@@H](O)[C@H](O[C@@H]3[C@@H](O)[C@H](N)C[C@H](N)[C@H]3O[C@H]3O[C@H](CO)[C@@H](O)[C@H](O)[C@H]3N)O[C@@H]2CO)[C@H](N)[C@@H](O)[C@@H]1O [Paromomycin, reference compound] | – | – | IC50 [1, 2]: 780 ± 310 nM |
| O=C(NC(c1ccccc1)c1ccc2cccnc2c1O)c1ccccc1 (stereo not drawn) [MMV666080, N-[(8-hydroxyquinolin-7-yl)-phenylmethyl]benzamide] | > 6060 | 14.9 | IC50 [1, 4]: 15 nM |
